Laboratory results published in patent US20240262844A1, “PYRIDINIUM SALTS AND METHODS OF USE” (UNIVERSITY OF WYOMING, priority 2023, published 2024).
Values joined by “and” are separate entries in the source; they are usually repeats but may differ in a detail not shown here. Equal values may be shown once. Where a name gives a salt, the structure may show the parent alone.

What was measured:
thioredoxin (11.6 kDa) = biological target: T1, thioredoxin (11.6 kDa) (Escherichia coli, UniProt P0AA25); assay: Photochemical labeling of thioredoxin (LC/MS, MS-MS); format: biochemical
T1 construct: purchased Sigma Aldrich; host or cells: E. coli
Method: (§1) General Procedure B: Photochemical Irradiation of Peptides and Proteins: To a 2 mL Pyrex LC/MS vial (Thermo model #03-391-39) were sequentially added solutions containing the desired biomolecule, glutathione (GSH), pyridinium salt, and ammonium acetate (NH4OAc). The resulting solution was diluted to a final volume of 500 μL and then sparged using nitrogen for a minimum of 30 minutes prior to irradiation. The actively sparging solution was then placed in an EvoluChem™ PhotoRedOx Box photoreactor that was equipped with a Kessil, PR160 427 nm LED Lamp and was then irradiated (100% lamp intensity) for the designated time at room temperature while maintaining active sparging. The resultant reaction mixture was then analyzed directly by LC/MS. Analysis of labeling outcomes using LC/MS was performed either by extracted ion chromatogram intensities (method A) or by integrating the area under the peaks associated with peptide content (method B). These values were totaled, and estimated percentages were assigned according to relative intensities of peaks or ion counts.
Labeling of Thioredoxin with Pyridinium Salt 2a (Thioredoxin-2a Conjugate). […] The reaction mixture was directly analyzed by LC/MS using method A and was estimated to have proceeded with 93% conversion and a 14.5:1 mono:di labeled ratio and 3% glutathionylation of all protein content. […]

Leuprolide (1.2 kDa) = assay: Photochemical labeling of leuprolide (LC/MS); format: biochemical; conditions: 10 μM leuprolide, 100 μM pyridinium salt, 300 μM glutathione, 20 mM NH4OAc pH 6.9, 427 nm, 30 minutes
Method: as §1
Labeling of Leuprolide with Pyridinium Salt 2a (Leuprolide-2a Conjugate). […] The reaction mixture was analyzed directly by LC/MS using method B and was estimated to have proceeded with 91% conversion, a >20:1 mono:di labeled ratio, and 4% of +1 label+glutathionylation. […]

T1 sequence (P0AA25 whole entry): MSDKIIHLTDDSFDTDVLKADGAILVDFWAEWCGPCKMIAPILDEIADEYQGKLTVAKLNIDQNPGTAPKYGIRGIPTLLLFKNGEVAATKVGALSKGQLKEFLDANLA

With `COC(=O)N(C)[n+]1c(C)cc(-c2ccc3cc(OC)ccc3c2)cc1C` [Pyridinium salt 2a, 1-((methoxycarbonyl)(methyl)amino)-4-(6-methoxynapthalen-2-yl)-2,6-dimethylpyridin-1-ium tetrafluoroborate] the conversion (thioredoxin (11.6 kDa); 10 μM thioredoxin, 200 μM pyridinium salt, 300 μM glutathione, 20 mM NH4OAc pH 6.9, 427 nm, 60 minutes) was 93% and 87%, the “site of tryptophan modification” value (thioredoxin (11.6 kDa); digestion/MS-MS) was “Trp-31” and the conversion (Leuprolide (1.2 kDa)) was 91%.
